From patent US20230120895A1, “PESTICIDALLY ACTIVE HETEROCYCLIC DERIVATIVES WITH SULFUR CONTAINING SUBSTITUENTS” (SYNGENTA CROP PROTECTION AG, priority 2019, published 2023)

How the values were obtained:
Type in all cases: in vivo
Diabrotica balteata = experiment: Activity against Diabrotica balteata (corn root worm); details: 96 h, application rate 200 ppm, sprayed maize sprouts, L2 larvae, 4 days after infestation, read-out: effect in at least one of the two categories (mortality or growth inhibition)
Experimental: Maize sprouts placed onto an agar layer in 24-well microtiter plates were treated with aqueous test solutions prepared from 10′000 ppm DMSO stock solutions by spraying. After drying, the plates were infested with L2 larvae (6 to 10 per well). The samples were assessed for mortality and growth inhibition in comparison to untreated samples 4 days after infestation.

Plutella xylostella = experiment: Activity against Plutella xylostella (diamond back moth); details: 192 h, application rate 200 ppm, artificial diet, eggs, 8 days after infestation, read-out: effect in at least one of the two categories (mortality or growth inhibition)
Experimental: 24-well microtiter plates with artificial diet were treated with aqueous test solutions prepared from 10′000 ppm DMSO stock solutions by pipetting. After drying, Plutella eggs were pipetted through a plastic stencil onto a gel blotting paper and the plate was closed with it. The samples were assessed for mortality and growth inhibition in comparison to untreated samples 8 days after infestation. The following compounds gave an effect of at least 80% in at least one of the two categories (mortality or growth inhibition) at an application rate of 200 ppm: P2, P3, P4, P5, P6, P8, P13.

Myzus persicae [1] = experiment: Activity against Myzus persicae (green peach aphid), feeding/contact activity; details: foliar, 144 h, application rate 200 ppm, sprayed sunflower leaf discs, mixed ages, 6 days after infestation
Experimental: Sunflower leaf discs were placed onto agar in a 24-well microtiter plate and sprayed with aqueous test solutions prepared from 10′000 ppm DMSO stock solutions. After drying, the leaf discs were infested with an aphid population of mixed ages. The samples were assessed for mortality 6 days after infestation.

Myzus persicae [2] = experiment: Activity against Myzus persicae (green peach aphid), systemic activity; details: 144 h, test rate 24 ppm, roots of pea seedlings in test solution, 6 days
Experimental: Roots of pea seedlings infested with an aphid population of mixed ages were placed directly into aqueous test solutions prepared from 10′000 DMSO stock solutions. The samples were assessed for mortality 6 days after placing seedlings into test solutions.

Spodoptera littoralis = experiment: Activity against Spodoptera littoralis (Egyptian cotton leaf worm); details: foliar, 72 h, application rate 200 ppm, sprayed cotton leaf discs, L1 larvae, 3 days after infestation, read-out: control (mortality, anti-feeding effect or growth inhibition)
Experimental: Cotton leaf discs were placed onto agar in 24-well microtiter plates and sprayed with aqueous test solutions prepared from 10′000 ppm DMSO stock solutions. After drying the leaf discs were infested with five L1 larvae. The samples were assessed for mortality, anti-feeding effect, and growth inhibition in comparison to untreated samples 3 days after infestation. Control of Spodoptera littoralis by a test sample is given when at least one of the categories mortality, anti-feedant effect, and growth inhibition is higher than the untreated sample.

Chilo suppressalis = experiment: Activity against Chilo suppressalis (striped rice stemborer); details: 144 h, application rate 200 ppm, artificial diet, L2 larvae, 6 days after infestation, read-out: control (mortality, anti-feeding effect or growth inhibition)
Experimental: 24-well microtiter plates with artificial diet were treated with aqueous test solutions prepared from 10′000 ppm DMSO stock solutions by pipetting. After drying, the plates were infested with L2 larvae (6-8 per well). The samples were assessed for mortality, anti-feeding effect, and growth inhibition in comparison to untreated samples 6 days after infestation. Control of Chilo suppressalis by a test sample is given when at least one of the categories mortality, anti-feedant effect, and growth inhibition is higher than the untreated sample.

Euschistus heros = experiment: Activity against Euschistus heros (neotropical brown stink bug); details: 120 h, application rate 200 ppm, sprayed soybean leaves, N2 nymphs, 5 days after infestation, read-out: effect in at least one of the two categories (mortality or growth inhibition)
Experimental: Soybean leaves on agar in 24-well microtiter plates were sprayed with aqueous test solutions prepared from 10′000 ppm DMSO stock solutions. After drying the leaves were infested with N2 nymphs. The samples were assessed for mortality and growth inhibition in comparison to untreated samples 5 days after infestation.

[3] = tested on: Carpocapsa (Cydia) pomonella; experiment: Activity against Carpocapsa (Cydia) pomonella (codling moth); details: 336 h, application rate 12.5 ppm, sprayed diet cubes, L1 larvae, 14 days after infestation
Experimental: Diet cubes coated with paraffin were sprayed with diluted test solutions in an application chamber. After drying off the treated cubes (10 replicates) were infested with 1 L1 larvae. Samples were incubated at 26-27° C. and checked 14 days after infestation for mortality and growth inhibition.

[4] = tested on: Frankliniella occidentalis; experiment: Activity against Frankliniella occidentalis (western flower thrips); details: foliar, 168 h, application rate 200 ppm, sprayed sunflower leaf discs, mixed ages, 7 days after infestation
Experimental: Sunflower leaf discs were placed on agar in 24-well microtiter plates and sprayed with aqueous test solutions prepared from […] stock solutions. After drying the leaf discs were infested with a Frankliniella population of mixed ages. The samples were assessed for mortality 7 days after infestation.

CCS(=O)(=O)c1cc(C2(C#N)CC2)cnc1-c1cc2ccc(=O)n(CC(F)(F)C(F)(F)F)c2cn1 [P3, 1-[5-ethylsulfonyl-6-[2-oxo-1-(2,2,3,3,3-pentafluoropropyl)-1,7-naphthyridin-6-yl]-3-pyridyl]cyclopropanecarbonitrile]
≥ 80%: percent effect (mortality or growth inhibition) at 200 ppm (Diabrotica balteata) | percent effect (mortality or growth inhibition) at 200 ppm (Plutella xylostella) | mortality at 200 ppm (Myzus persicae [1]) | mortality at 24 ppm (Myzus persicae [2]) | percent control (mortality, anti-feedant effect or growth inhibition) at 200 ppm (Spodoptera littoralis) | percent control (mortality, anti-feedant effect or growth inhibition) at 200 ppm (Chilo suppressalis) | percent effect (mortality or growth inhibition) at 200 ppm (Euschistus heros) | mortality at 12.5 ppm [3] | mortality at 200 ppm [4]
